In ChEMBL document CHEMBL1201862, “PubChem BioAssay data set” (2004):
Active and inactive are the calls of the source.

Columns and labels:
[1] = molecular target: Protein Rev (Human immunodeficiency virus type 1 group M subtype B (isolate HXB2)(HIV-1), UniProt P04618); test: inhibitors of Rev binding to RRE RNA, dose response, biochemical, fluorescence polarization, HIV-1 (AID 434976); design: species or system Human immunodeficiency virus 1
[2] = molecular target: Female germline-specific tumor suppressor gld-1 (Caenorhabditis elegans, UniProt Q17339); test: inhibitors of GLD-1 binding to TGE RNA, dose response, biochemical, fluorescence polarization, C. elegans (AID 2802);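 note: fluorescence polarization of labeled TGE RNA bound by purified gld-1 protein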
[3] = tested on: Vero; test: Vero cell cytotoxicity, cytotoxicity control for flavivirus capping enzyme inhibitors (AID 588742); format: functional; settings: Chlorocebus sabaeus
[4] = molecular target: Genome polyprotein (dengue virus type 2, UniProt P29990); test: Dengue-2 NS5 methyltransferase inhibitors, primary screen, biochemical, confirmation dose response (AID 588689); format: functional
[5] = inhibition of K1F phage lysis, E. coli UTI89, bacterial capsule biogenesis inhibitors, alamar blue (AID 488966); format: functional
[6] = cells; format: functional
[7] = inhibitors of firefly luciferase expression or activity, dose response, H4 neuroglioma cells, luminescence (AID 1990); format: functional, cell-based
[8] = Luminescence Cell-Based Dose Response HTS to Identify Inhibitors of 5'UTR Stem-Loop Driven Prion Protein mRNA Translation in H4 Neuroglioblastoma Cells. [Related pubchem assays: 1827 (Project Summary), 1813 (Primary HTS)]; format: functional
[9] = inhibitors of SNCA 5'UTR-driven reporter translation, confirmation, H4 neuroglioma cells, luminescence (AID 1988); format: functional, cell-based
[10] = cytotoxicity in HEK-293T cells, dose response, cytotoxicity control for BCR NF-kB inhibitor project, luminescence, B-cell screen hits (AID 489021); format: functional, cell-based;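 note: HEK-293T cells carrying an NF-kB luciferase reporter; cells exposed to compound for about 14 hours before viability readout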
[11] = molecular target: Scavenger receptor class B member 1 (Mus musculus, UniProt Q61009); test: inhibitors of SR-BI mediated HDL lipid uptake, dose response, ldlA[mSR-BI] cells, fluorescence, cherry pick (AID 493194); format: functional, cell-based;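 note: cellular uptake of fluorescent DiI-labeled HDL measured as cell fluorescence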
Chain of Scavenger receptor class B member 1 (Q61009 whole entry): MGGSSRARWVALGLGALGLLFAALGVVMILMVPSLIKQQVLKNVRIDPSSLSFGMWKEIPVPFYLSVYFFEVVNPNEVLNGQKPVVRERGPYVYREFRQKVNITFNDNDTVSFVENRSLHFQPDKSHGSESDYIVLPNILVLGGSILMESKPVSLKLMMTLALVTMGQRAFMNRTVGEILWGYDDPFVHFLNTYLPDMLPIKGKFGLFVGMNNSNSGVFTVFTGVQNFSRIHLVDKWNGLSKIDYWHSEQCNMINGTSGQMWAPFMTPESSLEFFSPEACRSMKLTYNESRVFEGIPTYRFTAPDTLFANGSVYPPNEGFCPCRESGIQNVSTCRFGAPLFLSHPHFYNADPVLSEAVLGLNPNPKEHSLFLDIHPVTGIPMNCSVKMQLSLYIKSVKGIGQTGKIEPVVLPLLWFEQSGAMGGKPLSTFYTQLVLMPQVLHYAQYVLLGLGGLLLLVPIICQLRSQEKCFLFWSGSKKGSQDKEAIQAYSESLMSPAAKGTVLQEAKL

[12] = molecular target: Glucose-6-phosphate 1-dehydrogenase (Homo sapiens, UniProt P11413); test: human G6PD enzyme inhibitors, dose response, selectivity assay for P. falciparum G6PD inhibitor project, biochemical, fluorescence (AID 504792); format: functional
Chain of Glucose-6-phosphate 1-dehydrogenase (P11413 whole entry): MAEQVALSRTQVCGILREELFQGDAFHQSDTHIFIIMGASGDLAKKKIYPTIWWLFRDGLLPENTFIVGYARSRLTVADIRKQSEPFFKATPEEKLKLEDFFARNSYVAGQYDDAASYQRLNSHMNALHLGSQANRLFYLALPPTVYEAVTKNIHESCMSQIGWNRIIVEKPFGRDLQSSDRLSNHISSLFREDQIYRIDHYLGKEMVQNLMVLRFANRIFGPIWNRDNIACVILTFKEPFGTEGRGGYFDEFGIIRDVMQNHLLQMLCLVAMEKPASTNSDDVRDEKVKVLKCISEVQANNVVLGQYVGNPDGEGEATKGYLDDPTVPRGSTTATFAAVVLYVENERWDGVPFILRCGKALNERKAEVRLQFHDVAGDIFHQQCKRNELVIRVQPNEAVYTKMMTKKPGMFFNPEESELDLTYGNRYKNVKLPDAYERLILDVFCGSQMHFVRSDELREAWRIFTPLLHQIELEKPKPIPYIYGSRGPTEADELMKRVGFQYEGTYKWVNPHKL

[13] = inhibition of ADP-Glo detection reagents, dose response, artefact control for CDK5 inhibitor project, biochemical, luminescence, cherry-picked samples, set 2 (AID 504546); format: functional
[14] = molecular target: Cyclin-dependent kinase 5/CDK5 activator 1 (Homo sapiens, UniProt Q00535); test: CDK5/p35 kinase inhibitors, dose response, biochemical, cherry-picked samples, set 2 (AID 504545)
Chain of Cyclin-dependent kinase 5/CDK5 activator 1 (Q00535 whole entry): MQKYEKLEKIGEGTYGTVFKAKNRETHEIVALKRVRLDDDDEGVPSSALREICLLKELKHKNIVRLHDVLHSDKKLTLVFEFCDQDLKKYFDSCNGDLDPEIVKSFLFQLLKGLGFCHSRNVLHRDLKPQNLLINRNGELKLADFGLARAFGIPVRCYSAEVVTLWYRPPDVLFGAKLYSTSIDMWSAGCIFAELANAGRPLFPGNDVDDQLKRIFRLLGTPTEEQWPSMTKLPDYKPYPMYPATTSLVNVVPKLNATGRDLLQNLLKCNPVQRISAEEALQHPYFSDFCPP
Chain of Cyclin-dependent kinase 5/CDK5 activator 1 (Q15078 whole entry, further chain): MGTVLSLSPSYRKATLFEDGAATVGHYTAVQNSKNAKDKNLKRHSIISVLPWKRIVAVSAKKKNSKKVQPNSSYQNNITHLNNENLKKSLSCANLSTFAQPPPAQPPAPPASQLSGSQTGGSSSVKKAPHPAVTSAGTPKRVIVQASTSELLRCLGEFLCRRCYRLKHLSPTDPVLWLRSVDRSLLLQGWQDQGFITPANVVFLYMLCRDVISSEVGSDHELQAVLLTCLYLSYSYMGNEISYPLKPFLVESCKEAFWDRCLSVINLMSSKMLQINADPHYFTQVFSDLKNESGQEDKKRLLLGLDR

[15] = molecular target: Nonstructural protein 1 (Influenza A virus, UniProt Q194T2); format: functional, Influenza A virus (A/California/07/2009(H1N1))
Chain of Nonstructural protein 1 (Q194T2 whole entry): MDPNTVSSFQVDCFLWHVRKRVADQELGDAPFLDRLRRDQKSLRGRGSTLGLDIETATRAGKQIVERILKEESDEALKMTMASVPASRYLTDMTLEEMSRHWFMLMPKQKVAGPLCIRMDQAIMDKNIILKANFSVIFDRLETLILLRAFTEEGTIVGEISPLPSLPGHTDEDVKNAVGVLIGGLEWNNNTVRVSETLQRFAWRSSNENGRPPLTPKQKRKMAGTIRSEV

[16] = molecular target: Heat shock protein HSP 90-alpha (Homo sapiens, UniProt P07900); format: functional, organism-based
[17] = Fluorescence-based cell-based high throughput dose response assay for inhibitors of the interaction of nucleotide-binding oligomerization domain containing 2 (NOD2) and the receptor-interacting serine-threonine kinase 2 (RIPK2).; format: functional; settings: Homo sapiens
[18] = molecular target: Beta Lactamase (Pseudomonas aeruginosa, UniProt Q932Y6); test: beta-lactamase reporter inhibitor potency, dose response, artefact control for NOD2-RIPK2 interaction inhibitor project, BLA reporter cells, FRET fluorescence (AID 651552); format: functional, cell-based
Chain of Beta Lactamase (Q932Y6 whole entry): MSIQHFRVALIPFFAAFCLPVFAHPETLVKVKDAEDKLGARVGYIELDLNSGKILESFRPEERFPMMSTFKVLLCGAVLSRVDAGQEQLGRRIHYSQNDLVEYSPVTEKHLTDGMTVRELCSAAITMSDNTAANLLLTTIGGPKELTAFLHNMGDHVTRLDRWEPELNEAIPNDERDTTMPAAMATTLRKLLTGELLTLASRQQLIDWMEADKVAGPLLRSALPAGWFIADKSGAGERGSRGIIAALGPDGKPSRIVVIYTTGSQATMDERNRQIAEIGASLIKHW

[19] = HeLa cell cytotoxicity, dose response, cytotoxicity control for MgcRacGAP inhibitor project (AID 624300); format: functional
[20] = molecular target: T1, Rac GTPase-activating protein 1 (Homo sapiens, UniProt Q9H0H5); test: MgcRacGAP GTPase-activating activity inhibitors, confirmation, biochemical, ADP Hunter fluorescence, primary and confirmatory (AID 624330); format: functional
T1 sequence (Q9H0H5 whole entry): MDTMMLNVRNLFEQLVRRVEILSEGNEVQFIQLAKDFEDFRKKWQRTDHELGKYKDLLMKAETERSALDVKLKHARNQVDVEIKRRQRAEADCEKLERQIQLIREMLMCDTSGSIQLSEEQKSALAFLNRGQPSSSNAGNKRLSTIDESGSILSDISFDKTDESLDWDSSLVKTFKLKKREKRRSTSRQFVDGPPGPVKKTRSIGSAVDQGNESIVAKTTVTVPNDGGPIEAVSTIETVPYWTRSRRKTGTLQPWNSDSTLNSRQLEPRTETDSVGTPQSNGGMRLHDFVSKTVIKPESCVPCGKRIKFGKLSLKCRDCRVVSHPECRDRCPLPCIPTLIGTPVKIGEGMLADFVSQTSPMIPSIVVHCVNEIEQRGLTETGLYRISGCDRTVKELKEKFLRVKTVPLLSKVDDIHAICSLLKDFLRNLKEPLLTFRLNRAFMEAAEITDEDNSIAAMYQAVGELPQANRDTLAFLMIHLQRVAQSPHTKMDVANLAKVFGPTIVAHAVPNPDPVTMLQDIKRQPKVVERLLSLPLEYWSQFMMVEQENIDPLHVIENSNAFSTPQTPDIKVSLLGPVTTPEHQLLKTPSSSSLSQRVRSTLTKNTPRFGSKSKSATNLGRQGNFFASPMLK

[21] = molecular target: Matrix metalloproteinase-14 (Homo sapiens, UniProt P50281); test: Dose Response confirmation of uHTS hits for a small molecule inhibitors of MT1-MMP activation in a fluorescence assay set 1.; format: functional
[22] = molecular target: T2, Histone-lysine N-methyltransferase NSD2 (Homo sapiens, UniProt O96028); format: biochemical
T2 sequence (O96028 whole entry): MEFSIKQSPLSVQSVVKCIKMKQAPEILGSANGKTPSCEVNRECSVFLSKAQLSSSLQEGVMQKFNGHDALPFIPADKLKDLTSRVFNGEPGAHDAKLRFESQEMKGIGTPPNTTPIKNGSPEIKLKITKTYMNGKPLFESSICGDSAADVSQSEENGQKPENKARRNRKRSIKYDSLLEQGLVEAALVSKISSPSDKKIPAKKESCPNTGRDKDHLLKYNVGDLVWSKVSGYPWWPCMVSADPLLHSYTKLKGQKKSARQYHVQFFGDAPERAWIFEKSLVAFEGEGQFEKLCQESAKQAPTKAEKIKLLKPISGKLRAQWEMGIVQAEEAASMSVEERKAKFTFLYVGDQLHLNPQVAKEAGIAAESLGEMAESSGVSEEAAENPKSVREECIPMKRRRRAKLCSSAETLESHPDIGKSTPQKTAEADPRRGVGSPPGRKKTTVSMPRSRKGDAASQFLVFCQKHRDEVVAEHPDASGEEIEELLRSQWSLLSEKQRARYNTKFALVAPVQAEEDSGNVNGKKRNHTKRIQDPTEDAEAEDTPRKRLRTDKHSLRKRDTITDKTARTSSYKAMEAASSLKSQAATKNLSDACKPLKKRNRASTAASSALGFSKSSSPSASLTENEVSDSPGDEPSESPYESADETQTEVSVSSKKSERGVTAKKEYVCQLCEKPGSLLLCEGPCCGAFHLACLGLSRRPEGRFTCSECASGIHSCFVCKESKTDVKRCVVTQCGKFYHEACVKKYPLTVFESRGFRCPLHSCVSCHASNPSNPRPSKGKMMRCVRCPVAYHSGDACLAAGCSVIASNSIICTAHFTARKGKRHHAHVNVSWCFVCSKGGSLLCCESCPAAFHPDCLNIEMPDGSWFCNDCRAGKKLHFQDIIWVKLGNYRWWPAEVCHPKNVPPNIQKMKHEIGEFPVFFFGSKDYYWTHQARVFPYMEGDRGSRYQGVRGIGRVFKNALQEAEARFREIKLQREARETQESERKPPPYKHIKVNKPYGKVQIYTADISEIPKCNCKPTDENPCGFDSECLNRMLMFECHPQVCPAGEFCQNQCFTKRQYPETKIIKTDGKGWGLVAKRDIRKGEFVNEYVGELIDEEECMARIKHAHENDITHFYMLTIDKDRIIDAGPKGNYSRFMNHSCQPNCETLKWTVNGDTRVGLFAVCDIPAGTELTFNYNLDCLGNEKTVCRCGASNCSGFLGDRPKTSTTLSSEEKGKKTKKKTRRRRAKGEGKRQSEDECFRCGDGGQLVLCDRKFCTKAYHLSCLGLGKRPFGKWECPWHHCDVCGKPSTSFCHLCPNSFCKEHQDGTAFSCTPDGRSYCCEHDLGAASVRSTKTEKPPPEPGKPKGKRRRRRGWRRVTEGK

[23] = human group III sPLA2 inhibitors, dose response, biochemical, QFRET, IC50 (AID 743457);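 note: green fluorescence rise as the enzyme cleaves BODIPY PC-A2 in liposomes; potency for inhibition of the enzyme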
[24] = molecular target: Wee1-like protein kinase (Homo sapiens, UniProt P30291); test: G2/M cell cycle arrest in HeLa, late-stage follow-up, mechanism study for Wee1 degradation inhibitor project, FACS, panel member Wee1 Degradation (AID 2088)
Chain of Wee1-like protein kinase (P30291 whole entry): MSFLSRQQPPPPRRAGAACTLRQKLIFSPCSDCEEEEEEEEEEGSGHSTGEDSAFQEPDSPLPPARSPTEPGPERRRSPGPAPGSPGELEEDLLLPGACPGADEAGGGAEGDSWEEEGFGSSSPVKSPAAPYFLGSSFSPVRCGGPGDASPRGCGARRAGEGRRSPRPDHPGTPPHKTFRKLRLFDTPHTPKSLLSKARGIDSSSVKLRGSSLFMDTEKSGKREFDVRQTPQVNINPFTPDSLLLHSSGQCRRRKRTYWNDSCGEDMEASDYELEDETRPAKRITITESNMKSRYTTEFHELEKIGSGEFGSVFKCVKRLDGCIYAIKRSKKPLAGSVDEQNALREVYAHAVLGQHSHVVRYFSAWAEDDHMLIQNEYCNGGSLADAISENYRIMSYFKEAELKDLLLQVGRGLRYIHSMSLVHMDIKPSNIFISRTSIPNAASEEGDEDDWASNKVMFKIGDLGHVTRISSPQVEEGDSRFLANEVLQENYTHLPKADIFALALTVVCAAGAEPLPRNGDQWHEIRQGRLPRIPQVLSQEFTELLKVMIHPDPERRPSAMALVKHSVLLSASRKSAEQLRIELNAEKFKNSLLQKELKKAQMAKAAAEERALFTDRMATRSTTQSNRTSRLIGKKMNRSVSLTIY

[25] = molecular target: G2/mitotic-specific cyclin-B1 (Homo sapiens, UniProt P14635); test: G2/M cell cycle arrest in HeLa, late-stage follow-up, mechanism study for Wee1 degradation inhibitor project, FACS, panel member Cyclin B Degradation (AID 2088)
Chain of G2/mitotic-specific cyclin-B1 (P14635 whole entry): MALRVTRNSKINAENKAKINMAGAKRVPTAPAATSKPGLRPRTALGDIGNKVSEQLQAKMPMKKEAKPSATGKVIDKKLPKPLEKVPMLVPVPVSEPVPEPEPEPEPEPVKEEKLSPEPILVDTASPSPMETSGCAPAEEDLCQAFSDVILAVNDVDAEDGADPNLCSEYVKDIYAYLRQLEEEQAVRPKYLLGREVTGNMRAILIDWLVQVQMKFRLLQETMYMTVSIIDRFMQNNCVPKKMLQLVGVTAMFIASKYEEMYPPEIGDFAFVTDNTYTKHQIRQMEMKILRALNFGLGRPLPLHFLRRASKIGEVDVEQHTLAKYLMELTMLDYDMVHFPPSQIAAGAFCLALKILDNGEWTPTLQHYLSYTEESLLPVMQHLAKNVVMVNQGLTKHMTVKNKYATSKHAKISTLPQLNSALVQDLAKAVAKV

[26] = cytotoxicity in BJeHLT fibroblasts, dose response, counter-screen for Ras selective lethality project, BJeHLT cells, dry powder (AID 493052); format: functional, cell-based; settings: Homo sapiens
[27] = viability loss in HRASV12 DRD fibroblasts, dose response, cell-based, DRD BJ fibroblasts, dry powder (AID 493049); format: functional
[28] = viability loss in BJeLR (HRASV12) cells, primary screen, Ras selective lethality project, cell-based, Alamar Blue, dry powder (AID 493045); format: functional
[29] = cytotoxicity in BJeH fibroblasts, dose response, counter-screen for Ras selective lethality project, BJeH cells, dry powder (AID 493054); format: functional, cell-based
[30] = molecular target: T3, Kappa-type opioid receptor (Homo sapiens, UniProt P41145); format: functional
T3 sequence (P41145 whole entry): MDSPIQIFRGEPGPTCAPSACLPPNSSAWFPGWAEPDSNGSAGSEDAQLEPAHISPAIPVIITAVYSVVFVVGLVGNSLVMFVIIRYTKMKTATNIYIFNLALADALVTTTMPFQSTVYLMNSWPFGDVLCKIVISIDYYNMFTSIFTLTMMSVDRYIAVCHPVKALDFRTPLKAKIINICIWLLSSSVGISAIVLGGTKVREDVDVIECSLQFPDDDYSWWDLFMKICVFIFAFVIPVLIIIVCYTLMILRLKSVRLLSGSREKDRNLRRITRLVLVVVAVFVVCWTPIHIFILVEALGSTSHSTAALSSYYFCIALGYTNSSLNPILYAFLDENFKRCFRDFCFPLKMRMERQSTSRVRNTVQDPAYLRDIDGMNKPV

[31] = molecular target: T4, Beta-galactosidase (Escherichia coli, UniProt Q8VNN2); format: functional
T4 sequence (Q8VNN2 whole entry): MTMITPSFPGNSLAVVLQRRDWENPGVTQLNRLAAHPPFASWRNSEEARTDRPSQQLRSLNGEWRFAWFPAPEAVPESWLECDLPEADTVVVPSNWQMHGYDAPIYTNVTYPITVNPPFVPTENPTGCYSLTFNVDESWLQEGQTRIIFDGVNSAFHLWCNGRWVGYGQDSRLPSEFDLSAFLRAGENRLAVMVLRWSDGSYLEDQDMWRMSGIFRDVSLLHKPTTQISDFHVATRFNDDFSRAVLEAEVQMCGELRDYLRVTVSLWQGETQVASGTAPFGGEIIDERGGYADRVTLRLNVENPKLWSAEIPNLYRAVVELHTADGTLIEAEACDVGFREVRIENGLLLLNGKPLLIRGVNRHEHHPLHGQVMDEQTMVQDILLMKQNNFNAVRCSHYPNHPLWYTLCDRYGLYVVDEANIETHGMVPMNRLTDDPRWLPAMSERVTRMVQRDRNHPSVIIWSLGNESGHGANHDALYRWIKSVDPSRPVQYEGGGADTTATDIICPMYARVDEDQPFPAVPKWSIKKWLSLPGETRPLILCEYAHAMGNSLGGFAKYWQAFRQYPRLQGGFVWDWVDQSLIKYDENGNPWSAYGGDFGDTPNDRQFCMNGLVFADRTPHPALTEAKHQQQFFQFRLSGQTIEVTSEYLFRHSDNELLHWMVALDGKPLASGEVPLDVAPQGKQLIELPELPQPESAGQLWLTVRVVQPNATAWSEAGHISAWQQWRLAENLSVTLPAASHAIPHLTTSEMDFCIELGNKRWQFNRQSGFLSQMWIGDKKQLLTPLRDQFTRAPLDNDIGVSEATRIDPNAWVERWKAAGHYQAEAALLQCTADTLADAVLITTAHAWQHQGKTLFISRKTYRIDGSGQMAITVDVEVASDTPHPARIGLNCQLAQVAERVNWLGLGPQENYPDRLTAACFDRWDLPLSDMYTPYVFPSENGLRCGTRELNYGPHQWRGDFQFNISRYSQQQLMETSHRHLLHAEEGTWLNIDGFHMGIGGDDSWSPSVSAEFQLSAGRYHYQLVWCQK

[32] = molecular target: T3, Kappa-type opioid receptor; format: functional; remark: listed apart in the source
[33] = molecular target: T4, Beta-galactosidase; test: beta-galactosidase enzyme inhibitors and activators, dose response, artefact control for CCR6 antagonist project, biochemical, E. coli enzyme, set 3 (AID 504712); format: functional
[34] = molecular target: T5, Corticotropin-releasing factor receptor 2/Corticotropin-releasing factor-binding protein (Homo sapiens, UniProt P24387+Q13324); test: activators of CRF receptor 2 with binding protein – uHTS hits, confirmation (AID 602473); format: functional; settings: read-out: EC50_Mean
T5 sequence (Q13324 whole entry): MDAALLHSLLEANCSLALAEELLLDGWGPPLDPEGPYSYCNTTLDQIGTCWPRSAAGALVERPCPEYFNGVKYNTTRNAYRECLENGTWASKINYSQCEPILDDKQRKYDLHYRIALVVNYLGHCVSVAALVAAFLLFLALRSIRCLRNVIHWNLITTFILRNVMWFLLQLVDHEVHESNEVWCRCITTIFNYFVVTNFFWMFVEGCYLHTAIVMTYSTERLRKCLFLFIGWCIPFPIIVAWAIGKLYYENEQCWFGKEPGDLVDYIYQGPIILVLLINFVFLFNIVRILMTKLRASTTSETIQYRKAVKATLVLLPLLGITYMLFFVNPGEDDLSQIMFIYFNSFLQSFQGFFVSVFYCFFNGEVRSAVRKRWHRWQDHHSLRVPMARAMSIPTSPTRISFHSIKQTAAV
T5 sequence (P24387 whole entry): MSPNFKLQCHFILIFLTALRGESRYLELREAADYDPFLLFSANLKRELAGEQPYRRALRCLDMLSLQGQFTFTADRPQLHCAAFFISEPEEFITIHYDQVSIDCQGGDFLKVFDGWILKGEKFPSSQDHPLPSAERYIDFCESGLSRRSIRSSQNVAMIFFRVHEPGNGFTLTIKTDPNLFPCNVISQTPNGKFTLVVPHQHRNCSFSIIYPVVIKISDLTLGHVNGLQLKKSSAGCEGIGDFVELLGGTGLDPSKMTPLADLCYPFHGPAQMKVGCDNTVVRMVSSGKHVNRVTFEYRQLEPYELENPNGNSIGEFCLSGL

Chain of Protein Rev (P04618 whole entry): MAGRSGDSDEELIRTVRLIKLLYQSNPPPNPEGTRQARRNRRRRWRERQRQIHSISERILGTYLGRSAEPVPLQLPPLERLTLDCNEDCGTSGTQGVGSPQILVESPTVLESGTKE

CCOc1ccc2nc(N3CCCN(C(=O)Nc4ccccc4C)CC3)c(C#N)cc2c1
IC50 [1]: 20.3 µM (not active) | IC50 [2]: > 59.7 µM (inactive) | CC50 [3]: > 40 µM (active) | IC50 [4]: 38.7 µM (active)

CCc1ccc(NC(=O)C(=O)NNC(=O)c2cccc(OC)c2)cc1
IC50 [5]: > 75 µM (active) | IC50 [6]: 10.5 µM (active)

CCCCOc1ccc(NC(=O)C(=O)NCCCn2ccnc2)cc1
EC50 [7]: 13.9 µM (active) | EC50 [8]: 18.5 µM (active) | EC50 [9]: 10.6 µM (active) | IC50 [10]: > 80 µM (inactive)

CCOc1ccc(NS(=O)(=O)c2ccc(C(=O)NNC(=O)c3ccccc3O)cc2)cc1
AC50 [11]: 11.1 µM (active)

CCN(CC)c1ccc(C(=C2C=CC(=[N+](CC)CC)C=C2)c2ccc(N(CC)CC)cc2)cc1
IC50 [12]: 44.7 µM (inactive) | AC50 [13]: 31.9 µM (active) | AC50 [14]: 12.3 µM (active) | IC50 [15]: 0.774 µM (active) | AC50 [16]: 0.57 µM (active) | IC50 [17]: 10.9 µM (inactive) | IC50 [18]: 10.8 µM (inactive) | CC50 [19]: 4.15 µM (active) | IC50 [20]: 20.6 µM (active) | IC50 [21]: > 80 µM (inactive) | AC50 [22]: 1.01 µM (active) | IC50 [23]: > 40.6 µM (inactive)

Cc1cc(O)nc(-n2nc(C)cc2NC(=O)Cc2ccc(F)cc2)n1
EC50 [24]: > 49.7 µM (inactive) | EC50 [25]: > 49.7 µM (inactive)

COc1ccc(N(CC(=O)NCCc2ccccc2)C(=O)CCl)cc1Cl
AC50 [26]: 0.531 µM (active) | AC50 [27]: 0.223 µM (active) | AC50 [28]: 0.231 µM (active) | AC50 [29]: 0.793 µM (active)

Cc1ccc(-n2[nH]c(C)c(/C=N/N3C(=O)c4cccc5cccc(c45)C3=O)c2=O)cc1
IC50 [30]: 6.32 µM (active) | EC50 [31]: > 31.5 µM (inactive) | IC50 [32]: > 32 µM | IC50 [33]: > 66.6 µM (inactive) | EC50 [34]: 3.95 µM (active)
